Test results taken from article PMC10253536, “Bradykinin and Neurotensin Analogues as Potential Compounds in Colon Cancer Therapy” (International Journal of Molecular Sciences, 2023).
Each block holds one compound with its values, some of them ahead of it. Non-standard residues stand in square brackets, D forms with d. Residues, ends and D or L forms follow the SMILES beside them. No end group written: not given here. *: point of attachment. Acetyl(1-adamantyl) = O=C(CC12CC3CC(CC(C3)C1)C2)*; Hyp = O=C(O)[C@@H]1C[C@@H](O)CN1; 2Thi = N[C@@H](Cc1cccs1)C(=O)O; Ac6c = NC1(C(=O)O)CCCCC1

Assays:
[1] = Stability test in human plasma; conditions: for stability in human plasma (in words): 0.4 mg/mL, 37 °C, up to 24 h, TCA or formic acid/urea procedure depending on peptide, RP-HPLC 223 nm, at least triplicates
Procedure: To check the stability of the studied peptides in human plasma, 24 h incubation of peptides in the appropriate medium was performed. For the studies, two methods were used. The first one involved the presence of trichloroacetic acid (TCA) as a protein precipitating reagent, while the second one involved a mixture of formic acid and urea. […] The procedure with the mixture of the formic acid and urea was used for BK-3, BK-4, BK-6, and BK-8.
• A. TCA procedure for peptides: BK, BK-1, BK-2, BK-5, BK-7, NT, and NT analogues.
Peptide stability tests were performed according to a TCA stability assay based on the method used by Nguyen et al.. Peptides were dissolved in water, mixed with 25% human plasma to a final concentration of 0.4 mg/mL, and incubated at 37 °C with agitation (300 rpm, Thermomixer, Eppendorf AG, Hamburg, Germany). After 0, 1, 2, 3, 4, and 24 h, […] of the solution was taken and mixed with 15% TCA to obtain a final concentration of 3% (v/v). The samples were incubated in ice for 10 min and centrifuged for 10 min (12,000 rpm, Microfuge 16, Beckman Coulter, Brea, CA, USA).
In the second method, peptides were dissolved in water, mixed with 25% human plasma to a final concentration 0.4 mg/mL, and incubated at 37 °C with agitation (300 rpm, Thermomixer, Eppendorf AG, Hamburg, Germany). After 0, 1, 2, 3, 4, and 24 h, […] of the solution was taken and mixed with 25 μL of a mixture of 1050 µL 6 M urea, 330 µL formic acid, and 120 µL water to a final peptide concentration of 0.4 mg/mL. The samples were incubated in ice for 10 min and centrifuged for 10 min (12,000 rpm, Microfuge 16, Beckman Coulter, Brea, CA, USA). Supernatants were analyzed by RP-HPLC on column Kinetex (2.6 µm, XB-C18 100 Å 150 × 2.1 mm) (Phenomenex, Torrance, CA, USA) using a linear gradient of acetonitrile (1–80% over 20 min) with detection at 223 nm. Peptides were quantified by their peak areas relative to the initial peak areas (0 min). All stability tests were performed at least in triplicates. As control samples, peptides dissolved only in water under the same conditions were used.

HCT116 cells [2] = experiment: Flow cytometry phenotype (CD133, CD44, CD29), HCT116 colonospheres; type: cell-based, human; conditions: spherical HCT116, 500 µg/mL, 24 h, vs untreated control, n = 5
Procedure: Figure 4 The phenotype of the colorectal cancer HCT116 cell line expanded in the form of colonospheres and treated with (A,C,E) bradykinin and (B,D,F) neurotensin analogues (500 µg/mL) for 24 h. The data are presented as fold change of frequency of cells with given phenotype in relation to untreated control cells. The control value is set at a level of 1. Bars and whiskers represent the median with min–max values (* p < 0.05 vs. untreated control cells; • p < 0.05 vs. BK treated cells; ANOVA Kruskal–Wallis test, n = 5).
Similarly as for the adherent HTC116 cells, we also tested the spherical form with respect to the presence of CD29 and CD44 integrins on their surface but not only in CD133+ (Figure 4C,D) but also in CD133 (Figure 4E,F). In these studies, the count of CD133+, CD44+, and CD29+ cells was not affected in spherical culture, while at the same time, we observed that CSCs in colonospheres were more likely to change the level of these markers within the CD133-negative population. […] In contrast, the analogues BK-4, BK-6, and BK-8 decreased the number of these cells.
HCT116 in both adherent (5 × 10^4 cells/mL in 24-well plate) and spherical forms (8 × 10^5/mL cells in 24-well ultra-low attachment plates) were maintained in appropriate medium. […]

HCT116 cells [3] = experiment: Cell death assay (7-AAD, flow cytometry), spherical HCT116 cells; type: cell-based, human; conditions: spherical HCT116, 500 µg/mL, 24 h, vs untreated control, n = 4
Description: We evaluated the percentage of nonviable cells of HTC116 following analogue treatment via a flow cytometric assay using 7-Amino Actinomycin D (7-AAD) dye according to the procedure presented in the Materials and Methods Section 4.6. This dye is excluded by living cells but binds selectively to the DNA of damaged permeabilized cells. We learned that the number of 7AAD-positive cells changed according to different scenarios in CRC cells cultured in adherent and spherical forms following the incubation with BK and NT analogues (Figure 6).
Figure 6 Analysis of the viability of colorectal cancer HCT116 cells expanded in spherical (A,B) or adherent (C,D) form and treated with bradykinin (A,C) and neurotensin analogues (B,D) (500 µg/mL) for 24 h. Cells were incubated with 7-AAD and analyzed by flow cytometry. The y-axis presents the fold increase in the frequency of 7-AAD+ cells compared to untreated control cells. (* p < 0.05 vs. untreated control cells; • p < 0.05 vs. BK/NT-treated cells; ANOVA Kruskal–Wallis test, n = 4). Data presented as bars and whiskers representing the median with min–max values).
Following BK and NT analogue treatment of HCT116 cells, we evaluated the proportion of dead cells in our samples. For this purpose, we used a 7AAD Via Probe (BD Biosciences, San Jose, CA, USA). […]

Compound: N=C(N)NCCC[C@H](NC(=O)[C@H](Cc1cccs1)NC(=O)C1(NC(=O)[C@H](CO)NC(=O)[C@H](Cc2cccs2)NC(=O)CNC(=O)[C@@H]2C[C@@H](O)CN2C(=O)[C@@H]2CCCN2C(=O)[C@H](CCCNC(=N)N)NC(=O)[C@@H](CCCNC(=N)N)NC(=O)CC23CC4CC(CC(C4)C2)C3)CCCCC1)C(=O)O [BK-3]
stability in human plasma (in words) ([1]; 25% human plasma): least stable | remaining at 24 h, 0.4 mg/mL ([1]; human, 25% human plasma): ~40%

Compound: N=C(N)NCCC[C@H](NC(=O)[C@H](Cc1cccs1)NC(=O)[C@H]1CCCCN1C(=O)[C@H](CO)NC(=O)[C@H](Cc1cccs1)NC(=O)CNC(=O)[C@@H]1C[C@@H](O)CN1C(=O)[C@@H]1CCCN1C(=O)[C@H](CCCNC(=N)N)NC(=O)[C@@H](CCCNC(=N)N)NC(=O)CC12CC3CC(CC(C3)C1)C2)C(=O)O [BK-8]
remaining at 24 h, 0.4 mg/mL ([1]; human, 25% human plasma): 70%

Compound: Neurotensin [NT]
CD133-CD44+CD29+ cell count in colonospheres (HCT116 cells [2]): significantly increasing | number of nonviable 7AAD+ cells, spherical form (HCT116 cells [3]): prominently increased

Compound: RPPGFSPFR [BK, Bradykinin]
remaining at 4 h, 0.4 mg/mL ([1]; human, plasma): 96% | remaining at 24 h, 0.4 mg/mL ([1]; human, plasma): ~50%

Second part, the compound after the results:

stability in human plasma (in words) ([1]; 25% human plasma): most stable
Compound: N=C(N)NCCC[C@@H](N)C(=O)N[C@@H](CCCNC(=N)N)C(=O)N1CCC[C@H]1C(=O)N1C[C@H](O)C[C@H]1C(=O)NCC(=O)N[C@@H](Cc1cccs1)C(=O)N[C@@H](CO)C(=O)N[C@H](Cc1ccccc1)C(=O)NC1(C(=O)N[C@@H](CCCNC(=N)N)C(=O)O)CCCC1 [BK-2] (HELM PEPTIDE1{[dR].R.P.[Hyp].G.[O=C([C@H](Cc1cccs1)N[*:1])[*:2]].S.[dF].[O=C(C1(N[*:1])CCCC1)[*:2]].R}$$$$V2.0)

stability in human plasma (in words) ([1]; 25% human plasma): most stable
Compound: N=C(N)NCCC[C@H](NC(=O)C1(NC(=O)[C@@H](Cc2ccccc2)NC(=O)[C@H](CO)NC(=O)[C@H](Cc2cccs2)NC(=O)CNC(=O)[C@@H]2C[C@@H](O)CN2C(=O)[C@@H]2CCCN2C(=O)[C@H](CCCNC(=N)N)NC(=O)[C@@H](CCCNC(=N)N)NC(=O)CC23CC4CC(CC(C4)C2)C3)CCCCC1)C(=O)O [BK-4] ({Acetyl(1-adamantyl)}-[dR]RP[Hyp]G[2Thi]S[dF][Ac6c]R-OH)

stability in human plasma (in words) ([1]; 25% human plasma): most stable
Compound: N=C(N)NCCC[C@@H](N)C(=O)N[C@@H](CCCNC(=N)N)C(=O)N1CCC[C@H]1C(=O)N1C[C@H](O)C[C@H]1C(=O)NCC(=O)N[C@@H](Cc1cccs1)C(=O)N[C@@H](CO)C(=O)N[C@H](Cc1ccccc1)C(=O)N1CCCC[C@H]1C(=O)N[C@@H](CCCNC(=N)N)C(=O)O [BK-5] (HELM PEPTIDE1{[dR].R.P.[Hyp].G.[O=C([C@H](Cc1cccs1)N[*:1])[*:2]].S.[dF].[O=C([C@@H]1CCCCN1[*:1])[*:2]].R}$$$$V2.0)

stability in human plasma (in words) ([1]; 25% human plasma): better stability than the native peptide
Compound: CC(C)C[C@H](NC(=O)[C@@H](NC(=O)[C@H](Cc1ccc(O)cc1)NC(=O)[C@@H]1CCCN1C(=O)[C@H](CCCCN)NC(=O)[C@H](CCCCN)NC(=O)CNC(=O)[C@H](CCC(=O)O)NC(=O)[C@@H]1CCCN1)C(C)(C)C)C(=O)O [NT-14] (HELM PEPTIDE1{P.E.G.K.K.P.Y.[CC(C)(C)[C@H](N[*:1])C(=O)[*:2]].L}$$$$V2.0)
